# Measured values taken from patent publication US20230257396A1, “MACROCYCLES AND THEIR USE” (BLOSSOMHILL THERAPEUTICS, INC., priority 2020, published 2023).
# How the values were obtained:
# Test in all cases: KINOMEscan kinase binding assay (Eurofins/DiscoveRx), % Ctrl
# Conditions in all cases: 1 μM
# [1] = target: T1, kinases (Homo sapiens, UniProt P10721, D816V)
# T1 construct: purchased Eurofins/DiscoveRx; host or cells: E. coli BL21-derived host (T7 phage display) for most kinases; HEK-293 for the rest
# Outline: (§1)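 Competition binding: DNA- or phage-tagged kinases (T7 phage in E. coli BL21, or HEK-293-expressed) with immobilized biotinylated ligand beads and test compound, 1 h at room temperature. Bead-bound kinase eluted and quantified by qPCR; % Ctrl = (compound − positive control)/(negative control − positive control) ×100 at a single compound concentration.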
# [2] = target: T2, kinases (Homo sapiens, UniProt P10721, A829P)
# T2 construct: purchased Eurofins/DiscoveRx; host or cells: E. coli BL21-derived host (T7 phage display) for most kinases; HEK-293 for the rest
# Outline: as §1
# [3] = target: T3, kinases (Homo sapiens, UniProt P36888, R834Q)
# T3 construct: purchased Eurofins/DiscoveRx; host or cells: E. coli BL21-derived host (T7 phage display) for most kinases; HEK-293 for the rest
# T3 sequence (P36888 27-993 R834Q): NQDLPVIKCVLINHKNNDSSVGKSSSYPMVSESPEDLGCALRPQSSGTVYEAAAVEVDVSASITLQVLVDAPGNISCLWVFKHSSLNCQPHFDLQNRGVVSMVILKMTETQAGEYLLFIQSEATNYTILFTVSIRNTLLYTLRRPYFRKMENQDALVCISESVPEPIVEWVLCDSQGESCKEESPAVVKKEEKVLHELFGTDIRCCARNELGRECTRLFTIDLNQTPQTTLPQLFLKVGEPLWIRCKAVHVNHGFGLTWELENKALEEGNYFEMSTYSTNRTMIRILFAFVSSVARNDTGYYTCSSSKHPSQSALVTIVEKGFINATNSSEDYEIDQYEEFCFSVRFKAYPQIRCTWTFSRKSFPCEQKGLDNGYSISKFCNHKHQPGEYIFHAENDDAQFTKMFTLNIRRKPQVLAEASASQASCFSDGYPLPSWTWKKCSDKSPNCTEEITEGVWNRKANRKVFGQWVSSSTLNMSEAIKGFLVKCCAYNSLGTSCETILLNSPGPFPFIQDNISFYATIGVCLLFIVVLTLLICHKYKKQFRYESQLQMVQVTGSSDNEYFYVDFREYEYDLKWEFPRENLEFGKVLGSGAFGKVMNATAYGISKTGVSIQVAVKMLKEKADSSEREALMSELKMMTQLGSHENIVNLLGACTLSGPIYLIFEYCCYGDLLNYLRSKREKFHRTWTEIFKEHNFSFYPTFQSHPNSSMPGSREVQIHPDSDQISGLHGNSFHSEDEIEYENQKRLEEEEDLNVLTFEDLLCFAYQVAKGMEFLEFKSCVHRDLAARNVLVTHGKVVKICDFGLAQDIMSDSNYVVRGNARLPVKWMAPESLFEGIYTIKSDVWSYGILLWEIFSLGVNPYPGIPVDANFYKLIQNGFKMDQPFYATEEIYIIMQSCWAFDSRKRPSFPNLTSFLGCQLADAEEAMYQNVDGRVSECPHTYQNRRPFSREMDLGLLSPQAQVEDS
# Outline: as §1
# [4] = target: T4, kinases (Homo sapiens, UniProt P07949)
# T4 construct: purchased Eurofins/DiscoveRx; host or cells: E. coli BL21-derived host (T7 phage display) for most kinases; HEK-293 for the rest
# Outline: as §1
# [5] = target: T5, kinases (Homo sapiens, UniProt P00519, M351T)
# T5 construct: purchased Eurofins/DiscoveRx; host or cells: E. coli BL21-derived host (T7 phage display) for most kinases; HEK-293 for the rest
# Outline: as §1
# [6] = target: T6, kinases (Homo sapiens, UniProt P17948)
# T6 construct: purchased Eurofins/DiscoveRx; host or cells: E. coli BL21-derived host (T7 phage display) for most kinases; HEK-293 for the rest
# Outline: as §1
# [7] = target: T7, kinases (Homo sapiens, UniProt P10721, V559D)
# T7 construct: purchased Eurofins/DiscoveRx; host or cells: E. coli BL21-derived host (T7 phage display) for most kinases; HEK-293 for the rest
# Outline: as §1
# [8] = target: T8, kinases (Homo sapiens, UniProt P16234)
# T8 construct: purchased Eurofins/DiscoveRx; host or cells: E. coli BL21-derived host (T7 phage display) for most kinases; HEK-293 for the rest
# Outline: as §1
# [9] = target: T9, kinases (Homo sapiens, UniProt P07949, V804M)
# T9 construct: purchased Eurofins/DiscoveRx; host or cells: E. coli BL21-derived host (T7 phage display) for most kinases; HEK-293 for the rest
# Outline: as §1
# [10] = target ABL1(M351T)-phosphorylated
# T6 sequence (P17948 27-1338): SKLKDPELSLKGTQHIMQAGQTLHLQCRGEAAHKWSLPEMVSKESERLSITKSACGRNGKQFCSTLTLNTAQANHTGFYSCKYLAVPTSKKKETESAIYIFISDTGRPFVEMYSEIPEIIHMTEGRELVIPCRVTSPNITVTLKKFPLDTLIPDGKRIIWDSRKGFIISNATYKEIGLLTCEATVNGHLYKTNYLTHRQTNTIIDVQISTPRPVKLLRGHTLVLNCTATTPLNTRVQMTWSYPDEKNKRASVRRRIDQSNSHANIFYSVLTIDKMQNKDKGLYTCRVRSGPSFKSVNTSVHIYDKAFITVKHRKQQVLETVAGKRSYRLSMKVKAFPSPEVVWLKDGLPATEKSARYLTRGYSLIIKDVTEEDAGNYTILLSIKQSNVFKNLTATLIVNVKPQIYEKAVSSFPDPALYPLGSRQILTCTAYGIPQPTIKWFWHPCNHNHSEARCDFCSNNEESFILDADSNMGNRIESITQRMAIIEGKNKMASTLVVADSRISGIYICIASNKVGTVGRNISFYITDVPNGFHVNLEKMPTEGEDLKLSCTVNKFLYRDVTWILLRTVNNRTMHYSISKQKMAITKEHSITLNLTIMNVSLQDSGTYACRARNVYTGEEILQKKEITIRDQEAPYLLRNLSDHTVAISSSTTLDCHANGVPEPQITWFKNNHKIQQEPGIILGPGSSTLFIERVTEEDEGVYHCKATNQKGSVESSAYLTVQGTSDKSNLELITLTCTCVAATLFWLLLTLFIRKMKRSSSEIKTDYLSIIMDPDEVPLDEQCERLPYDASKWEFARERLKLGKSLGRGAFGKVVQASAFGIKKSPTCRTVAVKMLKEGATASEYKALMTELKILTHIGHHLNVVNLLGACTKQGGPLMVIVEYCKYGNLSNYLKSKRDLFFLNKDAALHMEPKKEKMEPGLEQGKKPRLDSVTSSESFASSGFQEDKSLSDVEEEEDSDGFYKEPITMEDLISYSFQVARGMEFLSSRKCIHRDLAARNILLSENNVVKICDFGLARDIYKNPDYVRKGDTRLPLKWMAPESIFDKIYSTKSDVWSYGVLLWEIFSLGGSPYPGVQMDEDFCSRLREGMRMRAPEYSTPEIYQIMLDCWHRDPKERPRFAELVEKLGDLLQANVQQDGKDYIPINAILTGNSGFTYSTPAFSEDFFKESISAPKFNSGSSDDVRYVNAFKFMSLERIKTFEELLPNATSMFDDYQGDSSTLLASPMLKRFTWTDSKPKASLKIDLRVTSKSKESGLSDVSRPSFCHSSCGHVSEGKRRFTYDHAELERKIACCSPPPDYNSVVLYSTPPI
# T4 sequence (P07949 29-1114): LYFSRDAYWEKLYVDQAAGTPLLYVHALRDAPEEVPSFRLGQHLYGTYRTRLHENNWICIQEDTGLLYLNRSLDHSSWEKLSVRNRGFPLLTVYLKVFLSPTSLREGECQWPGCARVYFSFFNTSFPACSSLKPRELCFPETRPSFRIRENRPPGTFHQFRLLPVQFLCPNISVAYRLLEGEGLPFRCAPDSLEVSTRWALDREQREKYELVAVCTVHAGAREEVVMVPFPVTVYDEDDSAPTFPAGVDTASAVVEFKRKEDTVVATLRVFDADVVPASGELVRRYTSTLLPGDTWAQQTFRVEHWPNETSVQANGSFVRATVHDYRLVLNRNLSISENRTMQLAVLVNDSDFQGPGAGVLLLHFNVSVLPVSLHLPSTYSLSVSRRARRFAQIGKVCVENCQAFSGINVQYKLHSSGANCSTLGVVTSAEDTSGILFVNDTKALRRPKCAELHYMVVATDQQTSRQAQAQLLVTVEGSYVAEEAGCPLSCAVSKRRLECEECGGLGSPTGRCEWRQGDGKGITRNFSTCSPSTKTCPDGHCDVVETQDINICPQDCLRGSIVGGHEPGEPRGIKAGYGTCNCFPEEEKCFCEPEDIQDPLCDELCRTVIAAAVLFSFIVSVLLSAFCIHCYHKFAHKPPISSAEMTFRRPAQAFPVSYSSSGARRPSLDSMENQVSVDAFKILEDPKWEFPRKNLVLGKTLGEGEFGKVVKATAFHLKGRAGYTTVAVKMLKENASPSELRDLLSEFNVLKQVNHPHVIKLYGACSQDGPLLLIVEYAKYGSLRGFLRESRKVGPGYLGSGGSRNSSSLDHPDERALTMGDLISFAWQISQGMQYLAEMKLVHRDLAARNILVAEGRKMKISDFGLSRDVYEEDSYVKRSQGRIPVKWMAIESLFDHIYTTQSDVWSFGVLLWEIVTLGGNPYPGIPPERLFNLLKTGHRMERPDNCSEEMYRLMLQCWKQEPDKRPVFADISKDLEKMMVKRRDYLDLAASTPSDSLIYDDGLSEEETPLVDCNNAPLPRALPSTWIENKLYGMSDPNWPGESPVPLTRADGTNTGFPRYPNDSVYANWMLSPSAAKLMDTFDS
# T9 sequence (P07949 29-1114 V804M): as the sequence (P07949 29-1114) above, with V776M counted along it
# T1 sequence (P10721 26-976 D816V): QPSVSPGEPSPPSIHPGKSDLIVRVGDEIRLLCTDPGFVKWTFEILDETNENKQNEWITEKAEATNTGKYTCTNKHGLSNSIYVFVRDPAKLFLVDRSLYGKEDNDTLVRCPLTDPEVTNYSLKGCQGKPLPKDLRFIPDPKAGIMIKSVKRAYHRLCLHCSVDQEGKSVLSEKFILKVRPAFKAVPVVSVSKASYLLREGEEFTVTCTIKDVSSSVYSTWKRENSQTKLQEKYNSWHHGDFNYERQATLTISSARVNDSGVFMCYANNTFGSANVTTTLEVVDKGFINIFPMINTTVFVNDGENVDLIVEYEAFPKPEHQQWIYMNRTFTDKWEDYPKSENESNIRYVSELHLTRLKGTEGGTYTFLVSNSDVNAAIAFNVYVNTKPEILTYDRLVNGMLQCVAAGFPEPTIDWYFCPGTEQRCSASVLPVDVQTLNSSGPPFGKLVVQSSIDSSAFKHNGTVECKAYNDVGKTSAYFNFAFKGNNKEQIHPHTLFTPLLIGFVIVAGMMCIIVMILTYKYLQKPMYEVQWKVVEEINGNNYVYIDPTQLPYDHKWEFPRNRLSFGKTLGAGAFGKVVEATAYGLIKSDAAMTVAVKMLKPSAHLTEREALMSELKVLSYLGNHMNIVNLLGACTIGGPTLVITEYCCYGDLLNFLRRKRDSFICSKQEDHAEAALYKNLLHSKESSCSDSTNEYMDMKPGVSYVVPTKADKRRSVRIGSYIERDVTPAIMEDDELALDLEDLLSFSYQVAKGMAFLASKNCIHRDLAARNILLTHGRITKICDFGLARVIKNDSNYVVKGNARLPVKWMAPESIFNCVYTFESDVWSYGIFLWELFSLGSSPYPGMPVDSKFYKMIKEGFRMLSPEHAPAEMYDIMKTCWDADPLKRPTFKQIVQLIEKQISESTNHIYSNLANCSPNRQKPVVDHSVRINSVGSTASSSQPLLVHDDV
# T7 sequence (P10721 26-976 V559D): as the sequence (P10721 26-976 D816V) above, with V534D, V791D counted along it
# T2 sequence (P10721 26-976 A829P): as the sequence (P10721 26-976 D816V) above, with V791D, A804P counted along it
# T8 sequence (P16234 24-1089): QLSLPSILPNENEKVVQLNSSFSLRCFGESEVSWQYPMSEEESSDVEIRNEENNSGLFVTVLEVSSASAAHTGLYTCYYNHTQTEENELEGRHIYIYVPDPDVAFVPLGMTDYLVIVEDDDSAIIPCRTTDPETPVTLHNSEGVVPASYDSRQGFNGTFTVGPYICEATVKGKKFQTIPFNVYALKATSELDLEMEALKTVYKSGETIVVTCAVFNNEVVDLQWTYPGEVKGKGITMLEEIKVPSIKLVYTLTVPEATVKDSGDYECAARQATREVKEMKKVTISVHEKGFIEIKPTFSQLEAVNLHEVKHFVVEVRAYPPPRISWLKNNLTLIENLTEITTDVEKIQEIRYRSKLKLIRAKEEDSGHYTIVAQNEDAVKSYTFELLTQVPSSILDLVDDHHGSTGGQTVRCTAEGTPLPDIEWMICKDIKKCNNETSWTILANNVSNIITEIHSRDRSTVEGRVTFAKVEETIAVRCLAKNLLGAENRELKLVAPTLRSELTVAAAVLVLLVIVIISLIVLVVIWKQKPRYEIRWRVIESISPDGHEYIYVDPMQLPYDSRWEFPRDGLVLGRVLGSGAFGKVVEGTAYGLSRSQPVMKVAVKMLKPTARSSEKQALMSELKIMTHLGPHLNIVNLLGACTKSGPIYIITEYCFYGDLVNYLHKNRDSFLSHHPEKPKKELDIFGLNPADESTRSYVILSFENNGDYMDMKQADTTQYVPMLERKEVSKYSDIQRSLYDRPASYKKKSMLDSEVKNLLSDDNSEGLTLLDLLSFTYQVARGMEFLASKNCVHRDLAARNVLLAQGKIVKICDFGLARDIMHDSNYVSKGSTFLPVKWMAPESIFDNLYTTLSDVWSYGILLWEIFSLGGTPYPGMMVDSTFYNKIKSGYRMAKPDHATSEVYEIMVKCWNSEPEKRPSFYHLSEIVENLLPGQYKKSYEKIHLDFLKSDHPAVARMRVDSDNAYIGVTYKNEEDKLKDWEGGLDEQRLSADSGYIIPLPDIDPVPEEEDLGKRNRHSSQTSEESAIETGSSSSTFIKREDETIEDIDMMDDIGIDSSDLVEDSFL
SMILES,"% Ctrl, KIT(D816V) ([1]; KIT(D816V)) [% Ctrl]","% Ctrl, KIT(A829P) ([2]; KIT(A829P)) [% Ctrl]","% Ctrl, FLT3(R834Q) ([3]; FLT3(R834Q)) [% Ctrl]","% Ctrl, RET ([4]; RET) [% Ctrl]","% Ctrl, ABL1(M351T)-phosphorylated ([5]; ABL1(M351T)-phosphorylated) [% Ctrl]","% Ctrl, FLT1 ([6]; FLT1) [% Ctrl]","% Ctrl, KIT(V559D) ([7]; KIT(V559D)) [% Ctrl]","% Ctrl, PDGFRA ([8]; PDGFRA) [% Ctrl]","% Ctrl, RET(V804M) ([9]; RET(V804M)) [% Ctrl]","% Ctrl, KIT(D816V) ([1]; target KIT(D816V)) [% Ctrl]","% Ctrl, KIT(A829P) ([2]; target KIT(A829P)) [% Ctrl]","% Ctrl, FLT3(R834Q) ([3]; target FLT3(R834Q)) [% Ctrl]","% Ctrl, RET ([4]; target RET) [% Ctrl]","% Ctrl, ABL1(M351T)-phosphorylated [5, 10] [% Ctrl]","% Ctrl, FLT1 ([6]; target FLT1) [% Ctrl]","% Ctrl, KIT(V559D) ([7]; target KIT(V559D)) [% Ctrl]","% Ctrl, PDGFRA ([8]; target PDGFRA) [% Ctrl]","% Ctrl, RET(V804M) ([9]; target RET(V804M)) [% Ctrl]"
"Cc1cc2c([nH]1)/C=C1\C(=O)Nc3ccc(cc31)OCCOCCN(C)C2=O [Ex.91, [16a(17)Z]-2,5-dimethyl-6,7,9,10-tetrahydro-1H-12,14-(ethanediylidene)dipyrrolo[3,2-i:3′,4′-l][1,4,7]dioxazacyclopentadecine-4,16(5H,15H)-dione]",20,32,29,4.3,8.5,83,62,52,4,,,,,,,,,
"Cc1cc2c([nH]1)/C=C1\C(=O)Nc3ccc(cc31)-c1cnn(C)c1CNCCN(C)C2=O [Ex. 125, [3a(4)Z]-6,9,14-trimethyl-9,10,11,12,13,14-hexahydro-1,17-(ethanediylidene)pyrazolo[4,3-m]dipyrrolo[3,2-f:3′,4′-i][1,4]diazacyclopentadecine-3,8(2H,5H)-dione]",0.5,2.6,0.3,0,0.1,11,35,7.7,0,,,,,,,,,
"CNC(=O)[C@H]1CN(C)C(=O)c2cc(C)[nH]c2/C=C2\C(=O)Nc3cc(Cl)c(cc32)OCCO1 [Ex. 135, [7R,16a(17)Z]-19-chloro-N,2,5-trimethyl-4,16-dioxo-4,5,6,7,9,10,15,16-octahydro-1H-12,14-(ethanediylidene)dipyrrolo[3,2-i:3′,4′-l][1,4,7]dioxazacyclopentadecine-7-carboxamide]",76,75,63,33,48,85,45,79,77,,,,,,,,,
"Cc1cc2c([nH]1)/C=C1\C(=O)Nc3cnc(cc31)-c1cn[nH]c1CNCCN(C)C2=O [Ex. 55, [3a(4)Z]-6,9-dimethyl-9,10,11,12,13,14-hexahydro-17,1-(azenometheno)pyrazolo[4,3-m]dipyrrolo[3,2-f:3′,4′-i][1,4]diazacyclopentadecine-3,8(2,5H)-dione]",,,,,,,,,,1.3,39,25,4.2,3.7,62,55,50,0.3
"Cc1cc2c([nH]1)/C=C1\C(=O)Nc3cnc(cc31)-c1cnn(C)c1COCCNC2=O [Ex.123, [3a(4)Z]-6,14-dimethyl-10,11,13,14-tetrahydro-2H-17,1-(azenometheno)pyrazolo[4,3-m]dipyrrolo[3,2-f:3′,4′-i][1,4]oxazacyclopentadecine-3,8(5H,9H)-dione]",100,100,100,91,100,96,99,100,99,,,,,,,,,

# Other lines, results leading:
"% Ctrl, KIT(D816V) ([1]; KIT(D816V)) [% Ctrl]","% Ctrl, KIT(A829P) ([2]; KIT(A829P)) [% Ctrl]","% Ctrl, FLT3(R834Q) ([3]; FLT3(R834Q)) [% Ctrl]","% Ctrl, RET ([4]; RET) [% Ctrl]","% Ctrl, ABL1(M351T)-phosphorylated ([5]; ABL1(M351T)-phosphorylated) [% Ctrl]","% Ctrl, FLT1 ([6]; FLT1) [% Ctrl]","% Ctrl, KIT(V559D) ([7]; KIT(V559D)) [% Ctrl]","% Ctrl, PDGFRA ([8]; PDGFRA) [% Ctrl]","% Ctrl, RET(V804M) ([9]; RET(V804M)) [% Ctrl]","% Ctrl, KIT(D816V) ([1]; target KIT(D816V)) [% Ctrl]","% Ctrl, KIT(A829P) ([2]; target KIT(A829P)) [% Ctrl]","% Ctrl, FLT3(R834Q) ([3]; target FLT3(R834Q)) [% Ctrl]","% Ctrl, RET ([4]; target RET) [% Ctrl]","% Ctrl, ABL1(M351T)-phosphorylated [5, 10] [% Ctrl]","% Ctrl, FLT1 ([6]; target FLT1) [% Ctrl]","% Ctrl, KIT(V559D) ([7]; target KIT(V559D)) [% Ctrl]","% Ctrl, PDGFRA ([8]; target PDGFRA) [% Ctrl]","% Ctrl, RET(V804M) ([9]; target RET(V804M)) [% Ctrl]",SMILES
1.2,4,6.6,0,0.2,4,0.15,7.7,0.15,,,,,,,,,,"Cc1cc2c([nH]1)/C=C1\C(=O)Nc3cc(Cl)c(cc31)OCCOCCN(C)C2=O [Ex. 131, [16a(17)Z]-19-chloro-2,5-dimethyl-6,7,9,10-tetrahydro-1H-12,14-(ethanediylidene)dipyrrolo[3,2-i:3′,4′-l][1,4,7]dioxazacyclopentadecine-4,16(5H,15H)-dione]"
36,64,50,23,17,97,36,56,64,,,,,,,,,,"Cc1cc2c([nH]1)/C=C1\C(=O)Nc3cc(Cl)c(cc31)OCCO[C@@H](C(=O)N[C@@H]1CCNC1)CN(C)C2=O [Ex. 136, [7R,16a(17)Z]-19-chloro-2,5-dimethyl-4,16-dioxo-N-[(3R)-pyrrolidin-3-yl]-4,5,6,7,9,10,15,16-octahydro-1H-12,14-(ethanediylidene)dipyrrolo[3,2-i:3′,4′-l][1,4,7]dioxazacyclopentadecine-7-carboxamide]"
0.7,4.3,0,0,0.05,13,36,7.9,0.05,,,,,,,,,,"Cc1cc2c([nH]1)/C=C1\C(=O)Nc3ccc(cc31)-c1cnn(C)c1COCCN(C)C2=O [Ex. 124, [3a(4)Z]-6,9,14-trimethyl-10,11,13,14-tetrahydro-2H-1,17-(ethanediylidene)pyrazolo[4,3-m]dipyrrolo[3,2-f:3′,4′-i][1,4]oxazacyclopentadecine-3,8(5H,9H)-dione]"
67,75,65,8,51,88,75,72,57,,,,,,,,,,"Cc1cc2c([nH]1)/C=C1\C(=O)Nc3cc(Cl)c(cc31)OCCO[C@@H](C(=O)N(C)C)CN(C)C2=O [Ex. 137, [7R,16a(17)Z]-19-chloro-N,N,2,5-tetramethyl-4,16-dioxo-4,5,6,7,9,10,15,16-octahydro-1H-12,14-(ethanediylidene)dipyrrolo[3,2-i:3′,4′-l][1,4,7]dioxazacyclopentadecine-7-carboxamide]"
,,,,,,,,,34,51,33,0.6,13,11,5.4,41,31,"CN1CCOCCOc2cc3c(cc2Cl)NC(=O)/C3=C\c2[nH]ccc2C1=O [Ex. 143, [16a(17)Z]-19-chloro-2,5-dimethyl-6,7,9,10-tetrahydro-1H-12,14-(ethanediylidene)dipyrrolo[3,2-i:3′,4′-l][1,4,7]oxathiazacyclopentadecine-4,16(5H,15H)-dione]"
